Laboratory results as given in patent publication US10399932B2, “Inhibitors of indoleamine-2,3-dioxygenase for the treatment of cancer” (BRISTOL-MYERS SQUIBB COMPANY, priority 2015, dated 2019).

target: human IDO1 (Homo sapiens, UniProt P14902); assay: Assessment of human IDO-1 inhibitory activity in HEK cells (human IDO1/HEK293 cells, Ehrlich reagent, absorbance at 490 nm); assay type: cell-based; parameters: expressed in transfected cells; conditions: In Vitro Potency in the HEK Human IDO-1 Cellular Assay
Sequence (P14902 whole entry): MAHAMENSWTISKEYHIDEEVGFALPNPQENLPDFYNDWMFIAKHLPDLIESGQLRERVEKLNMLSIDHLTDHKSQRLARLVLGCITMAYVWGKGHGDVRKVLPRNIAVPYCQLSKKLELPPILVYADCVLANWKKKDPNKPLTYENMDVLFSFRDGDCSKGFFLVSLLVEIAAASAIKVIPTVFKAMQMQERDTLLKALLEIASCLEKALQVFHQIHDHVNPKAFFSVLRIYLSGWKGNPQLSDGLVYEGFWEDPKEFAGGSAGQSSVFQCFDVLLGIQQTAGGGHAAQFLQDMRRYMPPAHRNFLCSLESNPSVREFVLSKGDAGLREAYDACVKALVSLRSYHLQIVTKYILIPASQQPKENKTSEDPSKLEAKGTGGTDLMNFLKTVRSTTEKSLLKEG
Description: Exemplary compounds were tested for inhibition of IDO activity.
HEK293 cells were transfected with a pCDNA-based mammalian expression vector harboring human IDO1 cDNA (NM 002164.2) by electroporation. They were cultured in medium (DMEM with 10% FBS) containing 1 mg/ml G418 for two weeks. Clones of HEK293 cells that stably expressed human IDO1 protein were selected and expanded for IDO inhibition assay.
The human IDO1/HEK293 cells were seeded at 10,000 cells per 50 μL per well with RPMI/phenol red free media contains 10% FBS in a 384-well black wall clear bottom tissue culture plate (Matrix Technologies LLC) 100 nL of certain concentration of compound was then added to each well using ECHO liquid handling systems. The cells were incubated for 20 hours in 37° C. incubator with 5% CO2.
The compound treatments were stopped by adding trichloroacetic acid (Sigma-Aldrich) to a final concentration at 0.2%. The cell plate was further incubated at 50° C. for 30 minute. The equal volume supernatant (20 μL) and 0.2% (w/v) Ehrlich reagent (4-dimethylaminobenzaldehyde, Sigma-Aldrich) in glacial acetic acid were mixed in a new clear bottom 384-well plate. This plate was then incubated at room temperature for 30 minute. The absorbance at 490 nm was measured on Envision plate reader.
Compound IC50 values were calculated using the counts of 500 nM of a reference standard treatment as one hundred percent inhibition, and counts of no compound but DMSO treatment as zero percent inhibition.

Question: With `CC(CC(=O)O)c1ccc(N2CCC[C@H]2C(C)(C)O)c(Nc2ccc(C#N)cc2)c1` (single isomer, unassigned) [Example 802] as the molecule, how does the IC50 read?
Answer: Its IC50 is greater than 0.05 µM.

Question: With `CCN(c1ccc(C(CC(=O)O)c2ccccc2)cc1Nc1ccc(C#N)cc1)C1CCOCC1` (single isomer, unassigned) [Example 591, 3-(3-((4-cyanophenyl)amino)-4-(ethyl(tetrahydro-2H-pyran-4-yl)amino)phenyl)-3-phenylpropanoic acid] as the molecule, how does the IC50 read?
Answer: The IC50 was less than 0.005 µM.

Question: Which IC50 does the source give for `CCC(CC(=O)O)c1ccc(N2CCC[C@@H]2C(C)(C)O)c(NC(=O)Nc2ccc(C)cc2)c1` (single isomer, unassigned) [Example 779] here?
Answer: The IC50 was greater than 0.05 µM.

Question: `COCC(CC(=O)O)c1ccc(N(CC(C)C)CC(C)C)c(NC(=O)Nc2ccc(C)cc2)c1` (single isomer, unassigned) [Example 993-2] was tested. Which IC50 did it give?
Answer: The IC50 was less than 0.05 µM.

Question: For `CCC(CC(=O)O)c1ccc(N(CC(C)C)C2CCCCC2)c(Nc2ccc3c(c2)OCCO3)c1` (single isomer, unassigned) [Example 317, 3-(4-(cyclohexyl(isobutyl)amino)-3-((2,3-dihydrobenzo[b][1,4]dioxin-6-yl)amino)phenyl)pentanoic acid], which IC50 is on record?
Answer: Its IC50 is less than 0.05 µM.

Question: `CCC(CC(=O)O)c1cc(F)c(N(CC(C)C)CC(C)C)c(Nc2ccc3c(c2)OC(F)(F)O3)c1` (single isomer, unassigned) [Example 117, 3-(3-((2,2-difluorobenzo [d][1,3]dioxol-5-yl)amino)-4-(diisobutylamino)-5-fluorophenyl)pentanoic acid] was tested. Which IC50 did it give?
Answer: Its IC50 is less than 0.005 µM.

Question: For `COCC(CC(=O)O)c1ccc(N(CC(C)C)C2CCCCC2)c(NC(=O)Nc2ccc(C)cc2)c1` (single isomer, unassigned) [Example 989-2], which IC50 is on record?
Answer: The IC50 was less than 0.005 µM.

Question: For `Cc1cc(CC(=O)Nc2cc(C(CC(=O)O)C3CC3)ccc2N(CC(C)C)C2CCCCC2)no1` (single isomer, unassigned) [Example 1252, 3-(4-(Cyclohexyl(isobutyl)amino)-3-(2-(5-methylisoxazol-3-yl)acetamido)phenyl)-3-cyclopropylpropanoic acid], which IC50 is on record?
Answer: Its IC50 is less than 0.05 µM.

Question: With `COc1ncc(Nc2cc(C(C)CC(=O)O)ccc2N2CCC[C@H]2C(C)(C)O)cn1` (single isomer, unassigned) [Example 805] as the molecule, how does the IC50 read?
Answer: The IC50 was greater than 0.05 µM.

Question: Which IC50 does the source give for `COCC(CC(=O)O)c1ccc(N(CC(C)C)C2CCCCC2)c(NC(=O)Nc2ccccc2F)c1` (single isomer, unassigned) [1125 E2] here?
Answer: Its IC50 is less than 0.005 µM.

Question: With `CCC(CC(=O)O)c1cc(NC(=O)Nc2ccc3c(c2)OCO3)c(N(CC(C)C)CC(C)C)cc1F` (single isomer, unassigned) [Example 1136, 3-(5-(3-(Benzo[d][1,3]dioxol-5-yl)ureido)-4-(diisobutylamino)-2-fluorophenyl) pentanoic acid] as the molecule, how does the IC50 read?
Answer: Its IC50 is less than 0.005 µM.

Question: With `CCOc1ccc(CC(=O)Nc2cc(C(CC(=O)O)C3CC3)ccc2N(CC(C)C)C2CCCCC2)cc1` (single isomer, unassigned) [Example 1250, 3-(4-(Cyclohexyl(isobutyl)amino)-3-(2-(4-ethoxyphenyl)acetamido)phenyl)-3-cyclopropylpropanoic acid] as the molecule, how does the IC50 read?
Answer: The IC50 was less than 0.005 µM.

Question: For “3-(4-((1,1-dioxidotetrahydro-2H-thiopyran-4-yl)(ethyl)amino)-3-((4-fluorophenyl)amino)phenyl)-4-isopropoxybutanoic acid [Example 300]”, which IC50 is on record?
Answer: Its IC50 is less than 0.05 µM.

Question: For `Cc1ccc(NC(=O)Nc2cc(C(C)CC(=O)O)ccc2N(CC(C)C)C2CCOCC2)cc1` (single isomer, unassigned) [Example 965, 3-(4-(isobutyl(tetrahydro-2H-pyran-4-yl)amino)-3-(3-(p-tolyl)ureido)phenyl)butanoic acid], which IC50 is on record?
Answer: Its IC50 is less than 0.05 µM.

Question: How did the IC50 turn out when `CCN(c1ccc(C(CC(=O)O)c2ccccc2)cc1Nc1ccc(OC(F)F)cc1)C1CCOCC1` (single isomer, unassigned) [Example 593, 3-(3-((4-(difluoromethoxy)phenyl)amino)-4-(ethyl(tetrahydro-2H-pyran-4-yl)amino)phenyl)-3-phenylpropanoic acid] was run?
Answer: Its IC50 is less than 0.05 µM.

Question: With `CCC(CC(=O)O)c1ccc(N(CC(C)C)C2CCCCC2)c(Nc2ccc(F)c(F)c2)c1` (single isomer, unassigned) [Example 306, 3-(4-(cyclohexyl(isobutyl)amino)-3-((3,4-difluorophenyl)amino)phenyl)pentanoic acid] as the molecule, how does the IC50 read?
Answer: The IC50 was less than 0.005 µM.

Question: For `CCC(CC(=O)O)c1ccc(N(CC(C)C)C2CCCCC2)c(Nc2ccc(Cl)c(OCC(F)(F)F)c2)c1` (single isomer, unassigned) [Example 651, 3-(3-((4-chloro-3-(2,2,2-trifluoroethoxy)phenyl)amino)-4-(cyclohexyl(isobutyl)amino)phenyl)pentanoic acid], which IC50 is on record?
Answer: Its IC50 is less than 0.05 µM.

Question: For `CC(CC(=O)O)c1ccc(N(CC(C)(C)O)C2CCCCC2)c(Nc2ccc(Cl)c(OCC(F)(F)F)c2)c1` (single isomer, unassigned) [Example 55, 3-(3-((4-chloro-3-(2,2,2-trifluoroethoxy)phenyl)amino)-4-(cyclohexyl(2-hydroxy-2-methylpropyl)amino)phenyl) butanoic acid], which IC50 is on record?
Answer: Its IC50 is greater than 0.05 µM.

Question: How did the IC50 turn out when `CCC(CC(=O)O)c1cc(F)c(N(CC(C)C)C2CCCCC2)c(NC(=O)Nc2ccc(C)cc2)c1` (racemic) [Example 1091] was run?
Answer: Its IC50 is less than 0.005 µM.

Question: How did the IC50 turn out when `CCC(CC(=O)O)c1ccc(N2CCC[C@H]2C(C)(C)O)c(Nc2ccnc(N3CCOCC3)n2)c1` (single isomer, unassigned) [Example 832] was run?
Answer: The IC50 was greater than 0.05 µM.

Question: `CCC(CC(=O)O)c1cc(F)c(N(CC(C)C)CC(C)C)c(Nc2ccc3nc(C)sc3c2)c1` (single isomer, unassigned) [Example 111, 3-(4-(diisobutylamino)-3-fluoro-5-((2-methylbenzo [d]thiazol-6-yl)amino)phenyl)pentanoic acid] was tested. Which IC50 did it give?
Answer: Its IC50 is greater than 0.05 µM.

Question: How did the IC50 turn out when `CCOc1ncc(Nc2cc(C(CC)CC(=O)O)ccc2N(CC2CC2)C2CCOCC2)cn1` (single isomer, unassigned) [Example 711, 3-(4-((cyclopropylmethyl)(tetrahydro-2H-pyran-4-yl)amino)-3-((2-ethoxypyrimidin-5-yl)amino)phenyl)pentanoic acid] was run?
Answer: Its IC50 is less than 0.005 µM.

Question: `CCOc1ccc(NC(=O)Nc2cc(C(CC)CC(=O)O)c(F)cc2N(CC(C)C)C2CCCCC2)cc1` (single isomer, unassigned) [Example 1109, 3-(4-(Cyclohexyl(isobutyl)amino)-5-(3-(4-ethoxyphenyl)ureido)-2-fluorophenyl) pentanoic acid] was tested. Which IC50 did it give?
Answer: The IC50 was less than 0.005 µM.

Question: With `CCOc1ncc(Nc2cc(C(CC)CC(=O)O)ccc2N(CC(C)C)C2CCCCC2)cn1` (single isomer, unassigned) [Example 303, 3-(4-(cyclohexyl(isobutyl)amino)-3-((2-ethoxypyrimidin-5-yl)amino)phenyl)pentanoic acid] as the molecule, how does the IC50 read?
Answer: Its IC50 is less than 0.005 µM.

Question: With `CCC(CC(=O)O)c1cc(NC(=O)Nc2cncnc2)c(N(CC(C)C)C2CCCCC2)cc1F` (single isomer, unassigned) [Example 1124, 3-(4-(Cyclohexyl(isobutyl)amino)-2-fluoro-5-(3-(pyrimidin-5-yl)ureido)phenyl)pentanoic acid] as the molecule, how does the IC50 read?
Answer: Its IC50 is less than 0.005 µM.

Question: For `COCC(CC(=O)O)c1cc(F)c(N(CC(C)C)CC(C)C)c(NC(=O)Nc2ccc(Cl)cc2F)c1` (single isomer, unassigned) [Example 1195, 3-(3-(3-(4-Chloro-2-fluorophenyl)ureido)-4-(diisobutylamino)-5-fluorophenyl)-4-methoxybutanoic acid], which IC50 is on record?
Answer: The IC50 was less than 0.005 µM.

Question: `CCC(CC(=O)O)c1cc(F)c(N(CC(C)C)CC(C)C)c(Nc2ccc(C#N)cc2)c1` (single isomer, unassigned) [Example 123, 3-(3-((4-cyanophenyl)amino)-4-(diisobutylamino)-5-fluorophenyl)pentanoic acid] was tested. Which IC50 did it give?
Answer: The IC50 was less than 0.005 µM.

Question: Which IC50 does the source give for `CCOc1ccc(CC(=O)Nc2cc(C(COC)CC(=O)O)ccc2N(CC(C)C)C2CCCCC2)cc1` (single isomer, unassigned) [Example 1242, 3-(4-(Cyclohexyl(isobutyl)amino)-3-(2-(4-ethoxyphenyl)acetamido)phenyl)-4-methoxybutanoic acid] here?
Answer: Its IC50 is less than 0.05 µM.

Question: For `CCc1ccc(Nc2cc([C@@H](CC)CC(=O)O)ccc2N(CC(C)(C)O)C2CCCCC2)cc1` (single isomer, unassigned) [Example 228], which IC50 is on record?
Answer: Its IC50 is less than 0.005 µM.

Question: How did the IC50 turn out when `CCc1ccc(Nc2cc(C(C)CC(=O)O)ccc2N2C[C@@H](C)O[C@@H](C)C2)cc1` (single isomer, unassigned) [Example 746] was run?
Answer: The IC50 was greater than 0.05 µM.

Question: For `CCN(c1ccc(C(CC(=O)O)c2ccccc2)cc1Nc1ccc(Cl)cc1F)C1CCOCC1` (single isomer, unassigned) [Example 582, 3-(3-((4-chloro-2-fluorophenyl)amino)-4-(ethyl(tetrahydro-2H-pyran-4-yl)amino)phenyl)-3-phenylpropanoic acid], which IC50 is on record?
Answer: The IC50 was less than 0.05 µM.

Question: Which IC50 does the source give for `CCC(CC(=O)O)c1ccc(N2CCC[C@@H]2C(C)(C)O)c(NC(=O)Nc2ccc(F)cc2)c1` (single isomer, unassigned) [Example 775] here?
Answer: The IC50 was greater than 0.05 µM.

Question: Which IC50 does the source give for `COCC(CC(=O)O)c1ccc(N(CC(C)C)C2CCCCC2)c(NC(=O)Cc2ccc(Cl)cc2F)c1` (single isomer, unassigned) [Example 1246, 3-(3-(2-(4-Chloro-2-fluorophenyl)acetamido)-4-(cyclohexyl(isobutyl)amino)phenyl)-4-methoxybutanoic acid] here?
Answer: The IC50 was less than 0.005 µM.

Question: For `CCC(CC(=O)O)c1cc(F)c(N(CC(C)C)CC(C)C)c(NC(=O)Cc2ccc(C)cc2)c1` (single isomer, unassigned) [Example 980-2], which IC50 is on record?
Answer: Its IC50 is less than 0.005 µM.
